Laboratory results reported in ChEMBL document CHEMBL4346757, “Synthesis and biological evaluation of 7-methoxy-1-(3,4,5-trimethoxyphenyl)-4,5-dihydro-2H-benzo[e]indazoles as new colchicine site inhibitors” (Bioorg Med Chem Lett, 2019).

Key:
Tubulin = Tubulin (Bos taurus, UniProt Q6B856+Q862L2+Q862F3); assay: Inhibition of bovine brain tubulin polymerization measured every 1 min for 60 mins by turbidimetry based microplate reader analysis
HOP-62 = assay: Growth inhibition of human HOP62 cells assessed as cell growth at 0.01 uM after 48 hrs by SRB assay relative to control; assay type: functional; details: HOP-62, 48 h, read-out: Activity
SW-620 = assay: Growth inhibition of human SW620 cells assessed as cell growth at 0.01 uM after 48 hrs by SRB assay relative to control; assay type: functional; details: SW-620, 48 h, read-out: Activity
SF-539 [1] = assay: Growth inhibition of human SF539 cells assessed as cell growth at 0.01 uM after 48 hrs by SRB assay relative to control; assay type: functional; details: SF-539, 48 h, read-out: Activity
SK-MEL-2 = assay: Growth inhibition of human SK-MEL-2 cells assessed as cell growth at 0.01 uM after 48 hrs by SRB assay relative to control; assay type: functional; details: SK-MEL-2, 48 h, read-out: Activity
786-0 [2] = assay: Growth inhibition of human 786-0 cells assessed as cell growth at 0.01 uM after 48 hrs by SRB assay relative to control; assay type: functional; details: 786-0, 48 h, read-out: Activity
A498 = assay: Growth inhibition of human A498 cells assessed as cell growth at 0.01 uM after 48 hrs by SRB assay relative to control; assay type: functional; details: A498, 48 h, read-out: Activity
EKVX = assay: Growth inhibition of human EKVX cells assessed as cell growth at 0.1 uM after 48 hrs by SRB assay relative to control; assay type: functional; details: read-out: Activity
COLO 205 [3] = assay: Growth inhibition of human COLO205 cells assessed as cell growth at 0.1 uM after 48 hrs by SRB assay relative to control; assay type: functional; details: COLO 205, 48 h, read-out: Activity
SK-MEL-28 = assay: Growth inhibition of human SK-MEL-28 cells assessed as cell growth at 0.1 uM after 48 hrs by SRB assay relative to control; assay type: functional; details: SK-MEL-28, 48 h, read-out: Activity
OVCAR-5 = assay: Growth inhibition of human OVCAR5 cells assessed as cell growth at 0.1 uM after 48 hrs by SRB assay relative to control; assay type: functional; details: OVCAR-5, 48 h, read-out: Activity
MDA-MB-231 = assay: Growth inhibition of human MDA-MB-231/ATCC cells assessed as cell growth at 0.1 uM after 48 hrs by SRB assay relative to control; assay type: functional; details: MDA-MB-231, 48 h, read-out: Activity
CCRF-CEM = assay: Growth inhibition of human CCRF-CEM cells assessed as cell growth at 1 uM after 48 hrs by SRB assay relative to control; assay type: functional; details: read-out: Activity
SK-OV-3 = assay: Growth inhibition of human SKOV3 cells assessed as cell growth at 1 uM after 48 hrs by SRB assay relative to control; assay type: functional; details: SK-OV-3, 48 h, read-out: Activity
SF-539 [4] = assay: Growth inhibition of human SF539 cells assessed as cell growth at 10 uM after 48 hrs by SRB assay relative to control; assay type: functional; details: SF-539, 48 h, read-out: Activity
Malme-3M [5] = assay: Growth inhibition of human MALME-3M cells assessed as cell growth at 10 uM after 48 hrs by SRB assay relative to control; assay type: functional; details: read-out: Activity
M14 = assay: Growth inhibition of human M14 cells assessed as cell growth at 10 uM after 48 hrs by SRB assay relative to control; assay type: functional; details: M14, 48 h, read-out: Activity
MDA-MB-435 = assay: Growth inhibition of human MDA-MB-435 cells assessed as cell growth at 10 uM after 48 hrs by SRB assay relative to control; assay type: functional; details: MDA-MB-435, 48 h, read-out: Activity
OVCAR-8 = assay: Growth inhibition of human OVCAR8 cells assessed as cell growth at 10 uM after 48 hrs by SRB assay relative to control; assay type: functional; details: OVCAR-8, 48 h, read-out: Activity
786-0 [6] = assay: Growth inhibition of human 786-0 cells assessed as cell growth at 10 uM after 48 hrs by SRB assay relative to control; assay type: functional; details: 786-0, 48 h, read-out: Activity
ACHN [7] = assay: Growth inhibition of human ACHN cells assessed as cell growth at 100 uM after 48 hrs by SRB assay relative to control; assay type: functional; details: read-out: Activity
COLO 205 [8] = assay: Cytotoxicity against human COLO205 cells assessed as growth inhibition after 48 hrs by SRB assay; assay type: functional; details: COLO 205, 48 h
KM12 = assay: Cytotoxicity against human KM12 cells assessed as growth inhibition after 48 hrs by SRB assay; assay type: functional; details: KM12, 48 h
SNB-19 = assay: Cytotoxicity against human SNB19 cells assessed as growth inhibition after 48 hrs by SRB assay; assay type: functional; details: SNB-19, 48 h
Malme-3M [9] = assay: Cytotoxicity against human MALME-3M cells assessed as growth inhibition after 48 hrs by SRB assay; assay type: functional
NCI/ADR-RES = assay: Cytotoxicity against human NCI-ADR-RES cells assessed as growth inhibition after 48 hrs by SRB assay; assay type: functional
ACHN [10] = assay: Cytotoxicity against human ACHN cells assessed as growth inhibition after 48 hrs by SRB assay; assay type: functional
SN12C = assay: Cytotoxicity against human SN12C cells assessed as growth inhibition after 48 hrs by SRB assay; assay type: functional
DU-145 = assay: Cytotoxicity against human DU145 cells assessed as growth inhibition after 48 hrs by SRB assay; assay type: functional; details: DU-145, 48 h
[11] = read-out: LC50 (the source's name)
[12] = read-out: pLC50 (the source's name) (converted)

In the case of COc1ccc2c(c1)CCc1n[nH]c(-c3cc(OC)c(OC)c(OC)c3)c1-2, the IC50 (Tubulin) is reported as 3.4 µM, the growth at 0.01 µM (HOP-62) is reported as 11% and the growth at 0.01 µM (SW-620) is reported as 16%. The growth at 0.01 µM (SF-539 [1]) was -12%, the growth at 0.01 µM (SK-MEL-2) was 39% and the growth at 0.01 µM (786-0 [2]) was 24%. It also gave a growth at 0.01 µM (A498) of -11%, a growth at 0.1 µM (EKVX) of 53% and a growth at 0.1 µM (COLO 205 [3]) of -46%. For the same compound, the growth at 0.1 µM (SK-MEL-28) was 60%, the growth at 0.1 µM (OVCAR-5) was 54% and the growth at 0.1 µM (MDA-MB-231) was 29%. For the same compound, the growth at 1 µM (CCRF-CEM) was 42%, the growth at 1 µM (SK-OV-3) was -5% and the growth at 10 µM (SF-539 [4]) was -24%. For the same compound, the growth at 10 µM (Malme-3M [5]) was 41%, the growth at 10 µM (M14) was 2% and the growth at 10 µM (MDA-MB-435) was -38%. The growth at 10 µM (OVCAR-8) was 9%, the growth at 10 µM (786-0 [6]) was 3% and the growth at 100 µM (ACHN [7]) was -29%. For the same compound, the GI50 (COLO 205 [8]; read-out: GI50) was under 10 nM, the CC50 (COLO 205 [8]; [11]) was 249 nM and the TGI (COLO 205 [8]; read-out: TGI) was under 10 nM. For the same compound, the GI50 (COLO 205 [8]; read-out: pGI50 (converted)) was under 10 nM, the CC50 (COLO 205 [8]; [12]) was 251 nM and the TGI (COLO 205 [8]; read-out: pTGI) was under 10 nM. It also gave a GI50 (KM12; read-out: GI50) of under 10 nM, a CC50 (KM12; [11]) of 46.5 µM and a TGI (KM12; read-out: TGI) of 11.8 µM. The GI50 (KM12; read-out: pGI50 (converted)) was under 10 nM, the CC50 (KM12; [12]) was 46.8 µM and the TGI (KM12; read-out: pTGI (converted)) was 11.7 µM. It also gave a GI50 (SNB-19; read-out: GI50) of under 10 nM, a CC50 (SNB-19; [11]) of over 100 µM and a TGI (SNB-19; read-out: TGI) of 46.3 µM. The GI50 (SNB-19; read-out: pGI50 (converted)) was under 10 nM, the CC50 (SNB-19; [12]) was over 100 µM and the TGI (SNB-19; read-out: pTGI (converted)) was 46.8 µM. The GI50 (Malme-3M [9]; read-out: GI50) was under 10 nM, the CC50 (Malme-3M [9]; [11]) was over 100 µM and the TGI (Malme-3M [9]; read-out: TGI) was 33.9 µM. The GI50 (Malme-3M [9]; read-out: pGI50 (converted)) was under 10 nM, the CC50 (Malme-3M [9]; [12]) was over 100 µM and the TGI (Malme-3M [9]; read-out: pTGI (converted)) was 33.9 µM. It also gave a GI50 (NCI/ADR-RES; read-out: GI50) of under 10 nM, an LC50 (NCI/ADR-RES; read-out: LC50) of over 100 µM and a TGI (NCI/ADR-RES; read-out: TGI) of under 10 nM. It also gave a GI50 (NCI/ADR-RES; read-out: pGI50 (converted)) of under 10 nM, an LC50 (NCI/ADR-RES; read-out: pLC50 (converted)) of over 100 µM and a TGI (NCI/ADR-RES; read-out: pTGI) of under 10 nM. It also gave a GI50 (ACHN [10]; read-out: GI50) of under 10 nM, an LC50 (ACHN [10]; read-out: LC50) of over 100 µM and a TGI (ACHN [10]; read-out: TGI) of 21.7 µM. The GI50 (ACHN [10]; read-out: pGI50 (converted)) was under 10 nM, the LC50 (ACHN [10]; read-out: pLC50 (converted)) was over 100 µM and the TGI (ACHN [10]; read-out: pTGI (converted)) was 21.9 µM. For the same compound, the GI50 (SN12C; read-out: GI50) was under 10 nM, the CC50 (SN12C; [11]) was over 100 µM and the TGI (SN12C; read-out: TGI) was 22 µM. For the same compound, the GI50 (SN12C; read-out: pGI50 (converted)) was under 10 nM, the CC50 (SN12C; [12]) was over 100 µM and the TGI (SN12C; read-out: pTGI (converted)) was 21.9 µM. The GI50 (DU-145; read-out: GI50) was under 10 nM, the CC50 (DU-145; [11]) was over 100 µM and the TGI (DU-145; read-out: TGI) was over 100 µM. The GI50 (DU-145; read-out: pGI50 (converted)) was under 10 nM, the CC50 (DU-145; [12]) was over 100 µM and the TGI (DU-145; read-out: pTGI) was over 100 µM.
